Assay results reported in patent US9115143B2, “Substituted indole derivatives as gamma secretase modulators” (Janssen Pharmaceuticals, Inc., priority 2011, dated 2015).
pIC50: −log10 of the molar value.

Columns and labels:
Aβtotal = test: Screening for γ-secretase-modulating activity: Aβtotal in supernatant of SKNBE2 cells carrying hAPP 695 wild type (Alphalisa); format: cell-based, human; conditions: overnight incubation, Alphalisa on supernatant
Method: (§1) Pharmacology A) Screening of the Compounds of the Invention for γ-Secretase-Modulating Activity
(§2) Screening was carried out using SKNBE2 human neuroblastoma cells carrying the hAPP 695—wild type, grown in Dulbecco's Modified Eagle's Medium/Nutrient mixture F-12 (DMEM/NUT-mix F-12) (HAM) provided by Invitrogen (cat no. 10371-029) containing 5% Serum/Fe supplemented with 1% non-essential amino acids, 1-glutamine 2 mM, Hepes 15 mM, penicillin 50 U/mL (units/mL) en streptomycin 50 μg/mL. Cells were grown to near confluency.
(§3) The screening was performed using a modification of the assay as described in Citron et al (1997) Nature Medicine 3: 67. Briefly, cells were plated in a 384-well plate at 10^4 cells/well in Ultraculture (Lonza, BE12-725F) supplemented with 1% glutamine (Invitrogen, 25030-024), 1% non-essential amino acid (NEAA), penicillin 50 U/mL en streptomycin 50 μg/mL in the presence of test compound at different test concentrations. The cell/compound mixture was incubated overnight at 37° C., 5% CO2. The next day the media were assayed by two sandwich immuno-assays, for Aβ42 and Aβtotal.
(§4) Aβtotal and Aβ42 concentrations were quantified in the cell supernatant using the Aphalisa technology (Perkin Elmer). Alphalisa is a sandwich assay using biotinylated antibody attached to streptavidin coated donorbeads and antibody conjugated to acceptor beads. In the presence of antigen, the beads come into close proximity. The excitation of the donor beads provokes the release of singlet oxygen molecules that trigger a cascade of energy transfer in the acceptor beads, resulting in light emission. To quantify the amount of Aβ42 in the cell supernatant, monoclonal antibody specific to the C-terminus of Aβ42 (JRF/cAβ42/26) was coupled to the receptor beads and biotinylated antibody specific to the N-terminus of Aβ (JRF/AβN/25) was used to react with the donor beads. To quantify the amount of Aβ total in the cell supernatant, monoclonal antibody specific to the N-terminus of Aβ (JRF/AβN/25) was coupled to the receptor beads and biotinylated antibody specific to the mid region of Aβ (biotinylated 4G8) was used to react with the donor beads.
(§5) To obtain the values reported in Table 3, the data are calculated as percentage of the maximum amount of amyloid Beta 42 measured in the absence of the test compound. The sigmoidal dose response curves were analyzed using nonlinear regression analysis with percentage of the control plotted against the log concentration of the compound. A 4-parameter equation was used to determine the IC50.

Aβ42 = test: Screening for γ-secretase-modulating activity: Aβ42 in supernatant of SKNBE2 cells carrying hAPP 695 wild type (Alphalisa); format: cell-based, human; conditions: SKNBE2 human neuroblastoma cells carrying hAPP 695 wild type; overnight incubation; Alphalisa on supernatant
Method: as §1, §2, §3, §4, §5

[1] = SKNBE2 human neuroblastoma cells carrying hAPP 695 wild type
[2] = Homo sapiens, SKNBE2, SKNBE2 human neuroblastoma cells carrying hAPP 695 wild type

SMILES	pIC50 (Aβtotal; [1])	pIC50 (Aβ42)	pIC50 (Aβtotal; [2])
COc1c(C#N)ccc2[nH]c(-c3nc4n(n3)CCOC4c3ccccc3C(F)(F)F)cc12 (single isomer, unassigned) [Compound 57, 2-[5,6-dihydro-8-[2-(trifluoromethyl)phenyl]-8H-[1,2,4]triazolo[5,1-c][1,4]oxazin-2-yl]-4-methoxy-1H-indole-5-carbonitrile]	< 5.00	6.22	–
COc1ccccc1C1CCCn2nc(-c3cc4cc(-n5cnc(C)c5)ccc4[nH]3)nc21 (single isomer, unassigned) [Compound 80, 5,6,7,8-tetrahydro-8-(2-methoxyphenyl)-2-[5-(4-methyl-1H-imidazol-1-yl)-1H-indol-2-yl]-[1,2,4]triazolo[1,5-a]pyridine]	–	6.33	< 5.00
Cc1cn(-c2cnc3[nH]c(-c4nc5n(n4)CCCC5c4ccc(F)cc4C)cc3c2)cn1 (single isomer, unassigned) [Compound 87, 8-(4-fluoro-2-methylphenyl)-5,6,7,8-tetrahydro-2-[5-(4-methyl-1H-imidazol-1-yl)-1H-pyrrolo[2,3-b]pyridin-2-yl]-[1,2,4]triazolo[1,5-a]pyridine]	< 5.00	6.35	–
Cc1cc(F)ccc1C1OCCn2cc(-c3cc4nc(-c5cnn(C)c5)ccc4[nH]3)nc21 (single isomer, unassigned) [Compound 101, 8-(4-fluoro-2-methylphenyl)-5,6-dihydro-2-[5-(1-methyl-1H-pyrazol-4-yl)-1H-pyrrolo[3,2-b]pyridin-2-yl]-8H-imidazo[2,1-c][1,4]oxazine]	–	5.66	< 5.00
COc1c(C#N)ccc2[nH]c(-c3nc4n(n3)CCOC4c3c(F)cccc3Cl)cc12 (single isomer, unassigned) [Compound 118, 2-[8-(2-chloro-6-fluorophenyl)-5,6-dihydro-8H-[1,2,4]triazolo[5,1-c][1,4]oxazin-2-yl]-4-methoxy-1H-indole-5-carbonitrile]	< 5.00	5.42	–
COc1c(C#N)ccc2[nH]c(-c3cn4c(n3)C(c3c(F)cccc3Cl)OCC4)cc12 (single isomer, unassigned) [Compound 123, 2-[8-(2-chloro-6-fluorophenyl)-5,6-dihydro-8H-imidazo[2,1-c][1,4]oxazin-2-yl]-4-methoxy-1H-indole-5-carbonitrile]	< 5.00	5.55	–
COc1c(C#N)ccc2[nH]c(-c3cn4c(n3)C(c3cccc(F)c3C(F)(F)F)OCC4)cc12 (single isomer, unassigned) [Compound 132, 2-[8-[3-fluoro-2-(trifluoromethyl)phenyl]-5,6-dihydro-8H-imidazo[2,1-c][1,4]oxazin-2-yl]-4-methoxy-1H-indole-5-carbonitrile]	< 5.00	6.31	–
COc1c(C#N)ccc2[nH]c(-c3nc4n(n3)CCOC4c3cccc(F)c3C(F)(F)F)cc12 (single isomer, unassigned) [Compound 134, 2-[8-[3-fluoro-2-(trifluoromethyl)phenyl]-5,6-dihydro-8H-[1,2,4]triazolo[5,1-c][1,4]oxazin-2-yl]-4-methoxy-1H-indole-5-carbonitrile]	< 5.00	6.00	–
COc1c(C#N)ccc2[nH]c(-c3cn4c(n3)C(c3cccc(C)c3F)OCC4)cc12 (single isomer, unassigned) [Compound 136, 2-[8-(2-fluoro-3-methylphenyl)-5,6-dihydro-8H-imidazo[2,1-c][1,4]oxazin-2-yl]-4-methoxy-1H-indole-5-carbonitrile]	< 5.00	5.90	–
COc1c(C#N)ccc2[nH]c(-c3nc4n(n3)CCOC4c3cccc(C)c3F)cc12 (single isomer, unassigned) [Compound 149, 2-[8-(2-fluoro-3-methylphenyl)-5,6-dihydro-8H-[1,2,4]triazolo[5,1-c][1,4]oxazin-2-yl]-4-methoxy-1H-indole-5-carbonitrile]	< 5.00	5.73	–

These reach a higher pIC50 (Aβ42). Values come first.

pIC50 (Aβtotal; [1])	pIC50 (Aβ42)	pIC50 (Aβtotal; [2])	SMILES
< 5.00	6.43	–	COc1c(C#N)ccc2[nH]c(-c3cn4c(n3)C(c3ccccc3C(F)(F)F)OCC4)cc12 (single isomer, unassigned) [Compound 45, 2-[5,6-dihydro-8-[2-(trifluoromethyl)phenyl]-8H-imidazo[2,1-c][1,4]oxazin-2-yl]-4-methoxy-1H-indole-5-carbonitrile]
< 5.00	6.73	–	COc1c(-n2cnc(C)c2)ccc2[nH]c(-c3cn4c(n3)C(c3ccc(F)cc3C)CCC4)cc12 (single isomer, unassigned) [Compound 79, 8-(4-fluoro-2-methylphenyl)-5,6,7,8-tetrahydro-2-[4-methoxy-5-(4-methyl-1H-imidazol-1-yl)-1H-indol-2-yl]-imidazo[1,2-a]pyridine]
< 5.00	6.82	–	COc1c(-n2cnc(C)c2)ccc2[nH]c(-c3cn4c(n3)C(c3ccc(F)cc3C)OCC4)cc12 (single isomer, unassigned) [Compound 113, 8-(4-fluoro-2-methylphenyl)-5,6-dihydro-2-[4-methoxy-5-(4-methyl-1H-imidazol-1-yl)-1H-indol-2-yl]-8H-imidazo[2,1-c][1,4]oxazine]
–	6.85	< 5.00	Cc1cn(-c2ccc3[nH]c(-c4nc5n(n4)CCCC5c4ccc(F)cc4C)cc3c2)cn1 (single isomer, unassigned) [Compound 76, 8-(4-fluoro-2-methylphenyl)-5,6,7,8-tetrahydro-2-[5-(4-methyl-1H-imidazol-1-yl)-1H-indol-2-yl]-[1,2,4]triazolo[1,5-a]pyridine]
< 5.00	7.13	–	COc1ccccc1C1CCCn2nc(-c3cc4cc(-n5cnc(C)c5)ccc4[nH]3)nc21 (single isomer, unassigned) [Compound 81, 5,6,7,8-tetrahydro-8-(2-methoxyphenyl)-2-[5-(4-methyl-1H-imidazol-1-yl)-1H-indol-2-yl]-[1,2,4]triazolo[1,5-a]pyridine]
–	7.19	< 5.00	Cc1cn(-c2cnc3[nH]c(-c4nc5n(n4)CCCC5c4ccc(F)cc4C)cc3c2)cn1 (single isomer, unassigned) [Compound 88, 8-(4-fluoro-2-methylphenyl)-5,6,7,8-tetrahydro-2-[5-(4-methyl-1H-imidazol-1-yl)-1H-pyrrolo[2,3-b]pyridin-2-yl]-[1,2,4]triazolo[1,5-a]pyridine]
5.27	7.32	–	COc1c(-n2cnc(C)c2)ccc2[nH]c(-c3nc4n(n3)CCCC4c3ccc(F)cc3C)cc12 (single isomer, unassigned) [Compound 84, 8-(4-fluoro-2-methylphenyl)-5,6,7,8-tetrahydro-2-[4-methoxy-5-(4-methyl-1H-imidazol-1-yl)-1H-indol-2-yl]-[1,2,4]triazolo[1,5-a]pyridine]
–	7.44	< 5.00	COc1c(C#N)ccc2[nH]c(-c3cn4c(n3)C(c3cccc(C)c3F)OCC4)cc12 (single isomer, unassigned) [Compound 135, 2-[8-(2-fluoro-3-methylphenyl)-5,6-dihydro-8H-imidazo[2,1-c][1,4]oxazin-2-yl]-4-methoxy-1H-indole-5-carbonitrile]
–	7.52	< 5.00	COc1c(-n2cnc(C)c2)ccc2[nH]c(-c3cn4c(n3)C(c3ccc(F)cc3C)CCC4)cc12 (single isomer, unassigned) [Compound 78, 8-(4-fluoro-2-methylphenyl)-5,6,7,8-tetrahydro-2-[4-methoxy-5-(4-methyl-1H-imidazol-1-yl)-1H-indol-2-yl]-imidazo[1,2-a]pyridine]
–	7.68	< 5.00	COc1c(-n2cnc(C)c2)ccc2[nH]c(-c3cn4c(n3)C(c3ccc(F)cc3C)OCC4)cc12 (single isomer, unassigned) [Compound 112, 8-(4-fluoro-2-methylphenyl)-5,6-dihydro-2-[4-methoxy-5-(4-methyl-1H-imidazol-1-yl)-1H-indol-2-yl]-8H-imidazo[2,1-c][1,4]oxazine]
5.63	7.85	–	COc1c(-n2cnc(C)c2)ccc2[nH]c(-c3nc4n(n3)CCCC4c3ccc(F)cc3C)cc12 (single isomer, unassigned) [Compound 83, 8-(4-fluoro-2-methylphenyl)-5,6,7,8-tetrahydro-2-[4-methoxy-5-(4-methyl-1H-imidazol-1-yl)-1H-indol-2-yl]-[1,2,4]triazolo[1,5-a]pyridine]
